Measurements: patent US8609660B2, “4,7-dihydro-pyrazolo[1,5-a]pyrazin-6-ylamine derivatives useful as inhibitors of beta-secretase (BACE)” (Janssen Pharmaceutica NV, priority 2010, dated 2013)

What was measured:
[1] = system: Aβtotal produced and secreted into the medium of human neuroblastoma SKNBE2 cells; experiment: Cellular αlisa assay in SKNBE2 cells, Aβtotal; format: cell-based; details: SKNBE2 cells expressing hAPP695, 18 hours incubation; for IC50: Homo sapiens, SKNBE2, 18 h, read-out: Cellular αlisa assay in SKNBE2 cells Aβtotal pIC50 (converted)
Procedure: (§1) Cellular αlisa Assay in SKNBE2 Cells In two αlisa assays the levels of Aβtotal and Aβ42 produced and secreted into the medium of human neuroblastoma SKNBE2 cells are quantified. The assay is based on the human neuroblastoma SKNBE2 expressing the wild type Amyloid Precursor Protein (hAPP695). […] Aβtotal and Aβ42 are measured by sandwich α[…] sandwich assay using biotinylated antibody AbN/25 attached to streptavidin coated beads and antibody Ab4G8 or cAb42/26 conjugated acceptor beads for the detection of Aβtotal and Aβ42 respectively. In the presence of Aβtotal or Aβ42, the beads come into close proximity. The excitation of the Donor beads provokes the release of singlet oxygen molecules that triggers a cascade of energy transfer in the Acceptor beads, resulting in light emission. Light emission is measured after 1 hour incubation (excitation at […] and emission at 615 nm). A best-fit curve is fitted by a minimum sum of squares method to the plot of % Controlmin versus compound concentration. […] [formula]

[2] = system: Aβ42 produced and secreted into the medium of human neuroblastoma SKNBE2 cells; experiment: Cellular αlisa assay in SKNBE2 cells, Aβ42; format: cell-based; details: SKNBE2 cells expressing hAPP695, 18 hours incubation; for IC50: Homo sapiens, SKNBE2, 18 h, read-out: Cellular αlisa assay in SKNBE2 cells Aβ42 pIC50 (converted)
Procedure: as §1

[3] = target: T1, recombinant BACE1 protein (Homo sapiens, UniProt P56817); experiment: Biochemical FRET based assay; details: recombinant BACE1 1 μg/ml, 120 min, room temperature, pH 5.0; for IC50: read-out: Biochemical FRET based assay pIC50 (converted)
T1 construct: recombinant BACE1 protein in a final concentration of 1 μg/ml
T1 sequence (P56817 46-501): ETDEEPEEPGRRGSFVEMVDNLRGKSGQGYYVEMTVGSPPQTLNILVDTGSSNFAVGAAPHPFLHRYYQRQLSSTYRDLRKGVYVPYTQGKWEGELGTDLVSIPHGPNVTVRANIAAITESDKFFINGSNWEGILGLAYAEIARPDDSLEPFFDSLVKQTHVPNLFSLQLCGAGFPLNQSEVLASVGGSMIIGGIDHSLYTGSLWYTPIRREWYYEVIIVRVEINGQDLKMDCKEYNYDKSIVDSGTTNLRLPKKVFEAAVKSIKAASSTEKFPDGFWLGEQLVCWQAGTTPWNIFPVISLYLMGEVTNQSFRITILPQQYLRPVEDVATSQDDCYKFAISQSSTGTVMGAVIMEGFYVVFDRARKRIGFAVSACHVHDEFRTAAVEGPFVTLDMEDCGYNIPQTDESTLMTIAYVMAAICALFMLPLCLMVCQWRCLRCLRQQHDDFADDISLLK
From the text: Biochemical FRET Based Assay This assay is a Fluorescence Resonance Energy Transfer Assay (FRET) based assay. The substrate for this assay is an APP derived 13 amino acids peptide that contains the 'Swedish' […] mutation of the amyloid precursor protein (APP) β-secretase cleavage site. […] Upon cleavage by BACE1, the fluorophore Mca is separated from the quenching group Dnp, restoring the full fluorescence yield of the donor. The increase in fluorescence is linearly related to the rate of proteolysis (Koike H et al. J Biochem. 1999, 126, 235-42). Briefly in a 384-well format recombinant BACE1 protein in a final concentration of 1 μg/ml is incubated for 120 minutes at room temperature with 10 μm substrate in incubation buffer (40 mM Citrate buffer pH 5.0, 0.04% PEG, 4% DMSO) in the absence or presence of compound. Next the amount of proteolysis is directly measured by fluorescence measurement at T=0 and T=120 (excitation at 320 nm and emission at 405 nm). […] [formula]

| IC50 [1] | IC50 [2] | IC50 [3] | Cellular αlisa assay in SKNBE2 cells Aβtotal pIC50 [1] | Cellular αlisa assay in SKNBE2 cells Aβ42 pIC50 [2] | Biochemical FRET based assay pIC50 [3] | SMILES |
| --- | --- | --- | --- | --- | --- | --- |
| 355 nM | 457 nM | 3310 nM |  |  |  | CC1(c2cccc(-c3cncnc3)c2)N=C(N)Cn2nccc21 (racemic) [Compound 1, rac-4-methyl-4-(3-pyrimidin-5-ylphenyl)-4,7-dihydropyrazolo[1,5-a]pyrazin-6-amine] |
| 11.7 nM | 10.7 nM |  |  |  |  | CC1(c2cccc(NC(=O)c3ccc(Cl)cn3)c2)N=C(N)Cn2nccc21 (racemic) [Compound 3, rac-N-[3-(6-amino-4-methyl-4,7-dihydropyrazolo[1,5-a]pyrazin-4-yl)-phenyl]-5-chloropyridine-2-carboxamide] |
|  |  |  | 6.41 | 6.4 | 5.49 | COc1cncc(-c2cc(C3(C)N=C(N)Cn4nccc43)c(F)cc2F)c1 (racemic) [Compound 5] |
|  |  |  | 6.13 | 6.06 | 5.53 | COc1cccc(-c2cc(C3(C)N=C(N)Cn4nccc43)c(F)cc2F)c1 (racemic) [Compound 6] |
|  |  |  | 7.73 | 7.72 | 6.84 | CC1(c2cc(NC(=O)c3ccc(Cl)cn3)ccc2F)N=C(N)Cn2nccc21 (racemic) [Compound 13] |
|  |  |  | 5.48 | 5.53 | 4.98 | CC1(c2cc(-c3cncnc3)ccc2F)N=C(N)Cn2nccc21 (racemic) [Compound 16] |
|  |  |  | 6.78 | 6.8 | 6.68 | COc1cnc(C(=O)Nc2ccc(F)c(C3(C)N=C(N)Cn4nc(C(F)(F)F)cc43)c2)cn1 (racemic) [Compound 30] |
|  |  | 603 nM | 6.18 | 6.13 |  | COc1cncc(-c2cccc(C3(C)N=C(N)Cn4nc(C(F)(F)F)cc43)c2)c1 (single isomer, unassigned) [Compound 22, (R*)-4-[3-(5-methoxypyridin-3-yl)-phenyl]-4-methyl-2-(trifluoromethyl)-4,7-dihydropyrazolo[1,5-a]pyrazin-6-amine] |
|  |  | > 30200 nM | <5 | <5 |  | COc1cncc(-c2cccc(C3(C)N=C(N)Cn4nc(C(F)(F)F)cc43)c2)c1 (single isomer, unassigned) [Compound 23, (S*)-4-[3-(5-methoxypyridin-3-yl)-phenyl]-4-methyl-2-(trifluoromethyl)-4,7-dihydropyrazolo[1,5-a]pyrazin-6-amine] |
|  |  | 3630 nM | 5.64 | 5.5 |  | CC1(c2cc(-c3cncc(Cl)c3)ccc2F)N=C(N)Cn2nc(C(F)(F)F)cc21 (single isomer, unassigned) [Compound 25, (R*)-4-[5-(5-chloropyridin-3-yl)-2-fluorophenyl]-4-methyl-2-(trifluoromethyl)-4,7-dihydropyrazolo[1,5-a]pyrazin-6-amine] |
|  |  | > 30200 nM | <5 | <5 |  | CC1(c2cc(-c3cncc(Cl)c3)ccc2F)N=C(N)Cn2nc(C(F)(F)F)cc21 (single isomer, unassigned) [Compound 26, (S*)-4-[5-(5-chloropyridin-3-yl)-2-fluorophenyl]-4-methyl-2-(trifluoromethyl)-4,7-dihydropyrazolo[1,5-a]pyrazin-6-amine] |
|  |  | 91.2 nM | 7.1 | 6.99 |  | CC1(c2cc(NC(=O)c3ncc(Cl)cc3Cl)ccc2F)N=C(N)Cn2nc(C(F)(F)F)cc21 (single isomer, unassigned) [Compound 28, (R*)—N-{3-[6-amino-4-methyl-2-(trifluoromethyl)-4,7-dihydropyrazolo[1,5-a]pyrazin-4-yl]-4-fluorophenyl}-3,5-dichloropyridine-2-carboxamide] |
|  |  | 15500 nM | <5 | <5 |  | CC1(c2cc(NC(=O)c3ncc(Cl)cc3Cl)ccc2F)N=C(N)Cn2nc(C(F)(F)F)cc21 (single isomer, unassigned) [Compound 29, (S*)—N-{3-[6-amino-4-methyl-2-(trifluoromethyl)-4,7-dihydropyrazolo[1,5-a]pyrazin-4-yl]-4-fluorophenyl}-3,5-dichloropyridine-2-carboxamide] |
|  |  |  | 6.99 | 6.92 | 6.73 | COc1cnc(C(=O)Nc2ccc(F)c(C3(C)N=C(N)Cn4nc(C(F)(F)F)cc43)c2)cn1 (single isomer, unassigned) [Compound 31] |
|  |  |  | 6.54 | 6.56 | <4.52 | COc1cnc(C(=O)Nc2ccc(F)c(C3(C)N=C(N)Cn4nc(C(F)(F)F)cc43)c2)cn1 (single isomer, unassigned) [Compound 32] |
|  |  |  | 6.54 | 6.61 | 5.65 | CC1(c2cccc(-c3cncnc3)c2)N=C(N)Cn2nccc21 (stereo not shown) [Compound 8] |
|  |  |  | 6.94 | 6.93 | 6.05 | COc1cncc(-c2cccc(C3(C)N=C(N)Cn4nccc43)c2)c1 (stereo not shown) [Compound 9] |
|  |  |  | 6.11 | 6.09 | 6.11 | CC1(c2cccc(-c3cc(F)cc(F)c3)c2)N=C(N)Cn2nccc21 (stereo not shown) [Compound 14] |
|  |  |  | 8.08 | 8.09 |  | CC1(c2cccc(NC(=O)c3ccc(Cl)cn3)c2)N=C(N)Cn2nccc21 (stereo not shown) [Compound 17] |
|  |  |  | 5.91 | 5.81 | 5.77 | CC1(c2cccc(-c3cccc(OC(F)(F)F)c3)c2)N=C(N)Cn2nccc21 (stereo not shown) [Compound 19] |
| 398 nM | 407 nM | 1070 nM |  |  |  | COc1cncc(-c2cccc(C3(C)N=C(N)Cn4nc(C(F)(F)F)cc43)c2)c1 (stereo not drawn) [Compound 21, rac-4-[3-(5-methoxypyridin-3-yl)-phenyl]-4-methyl-2-(trifluoromethyl)-4,7-dihydropyrazolo[1,5-a]pyrazin-6-amine] |

| SMILES | IC50 [1] | IC50 [2] | IC50 [3] | Cellular αlisa assay in SKNBE2 cells Aβtotal pIC50 [1] | Cellular αlisa assay in SKNBE2 cells Aβ42 pIC50 [2] | Biochemical FRET based assay pIC50 [3] |
| --- | --- | --- | --- | --- | --- | --- |
| CC1(c2cc(-c3ccccc3)c(F)cc2F)N=C(N)Cn2nccc21 (racemic) [Compound 12] |  |  |  | 5.67 | 5.58 | 4.88 |
| CC1(c2cc(-c3cc(Cl)cc(Cl)c3)ccc2F)N=C(N)Cn2nccc21 (racemic) [Compound 15] |  |  |  | 5.52 | 5.48 | 5.68 |
| CC1(c2cc(-c3cccc(C#N)c3)c(F)cc2F)N=C(N)Cn2nccc21 (racemic) [Compound 18] |  |  |  | 5.67 | 5.76 | 4.75 |
